The record followed here is patent publication US20240366612A1, “COMPOUNDS AND METHODS FOR MODULATING NUCLEIC ACID SPLICING” (REMIX THERAPEUTICS INC., priority 2021, published 2024).

Structures can show the parent of a compound that is named as a salt.

Broadly, the IC50 is the concentration needed to halve the response being measured. The GI50 is the concentration giving 50% growth inhibition. High values mean lower sensitivity of the cells, low ones greater sensitivity of the cells.

The subject of one series is MYB CJ mRNA. The experiment in a line: Gene panel canonical junction qPCR assay, MYB. The format is cell-based. The following applies: Homo sapiens, larger gene panel, read-out: MYB IC50 (decrease in CJ mRNA levels). As for the experimental part: Compounds described herein were used to modulate RNA transcript abundance in cells. The expression of a target mRNA was measured by detecting the formation of an exon-exon junction in the canonical transcript (CJ). A compound mediated exon-inclusion event was detected by observing an increase in formation of a new junction with an alternative exon (AJ). Real-time qPCR assays were used to detect these splicing switches and interrogate the potency of various compounds towards different target genes. A high-throughput real time quantitative PCR (RT-qPCR) assay was developed to measure these two isoforms of the mRNA (CJ and AJ) for exemplary genes, such as HTT, SMN2, and MYB, together with a control housekeeping gene, GAPDH or GUSB or PPIA, used for normalization. Briefly, the A673 or K562 cell line was treated with various compounds described herein (e.g., compounds of Formula (I)). After treatment, the levels of the HTT, MYB, or SMN2 mRNA targets were determined from each sample of cell lysate by cDNA synthesis followed by qPCR.
The A673 cell line was cultured in DMEM with 10% FBS. Cells were diluted with full growth media and plated in a 96-well plate (15,000 cells in 100 ul media per well). The plate was incubated at 37° C. with 5% CO2 for 24 hours to allow cells to adhere. An 11-point 3-fold serial dilution of the compounds was made in DMSO then diluted in media in an intermediate plate. Compounds were transferred from the intermediate plate to the cell plate with the top dose at a final concentration of 10 uM in the well. Final DMSO concentration was kept at or below 0.25%. The cell plate was returned to the incubator at 37° C. with 5% CO2 for an additional 24 hours.
The K562 cell line was cultured in IMDM with 10% FBS. For K562, cells were diluted with full growth media and plated in either a 96-well plate (50,000 cells in 50 uL media per well) or a 384-well plate (8,000-40,000 cells in 45 uL media per well). An 11-point 3-fold serial dilution of the compounds were made in DMSO then diluted in media in an intermediate plate. Compound was transferred from the intermediate plate to the cell plate with the top dose at a final concentration of 10 uM in the well. Final DMSO concentration was kept at or below 0.25%. Final volume was 100 uL for 96-well plate and 50 uL for 384-well plate. The cell plate was then placed in an incubator at 37° C. with 5% CO2 for 24 hours.
The data analysis was performed by first determining the ΔCt vs the housekeeper gene. This ΔCt was then normalized against the DMSO control (ΔΔCt) and converted to RQ (relative quantification) using the 2^(−ΔΔCt) equation. The RQ were then converted to a percentage response by arbitrarily setting an assay window of 3.5 and 4.0 ΔCt for HTT-CJ and MYB-CJ respectively and an assay window of 9 and 3 ΔCt for HTT-AJ and MYB-AJ in 96 well format (50,000 K562 cells/well and 15,000 A673 cells per well) and an assay window of 3 and 4 ΔCt for HTT-CJ and MYB-CJ respectively and an assay window of 5 and 3 ΔCt for HTT-AJ and MYB-AJ respectively in 384 well format (8,000 K562 cells/well example). […] The percentage response was then fitted to the 4 parametric logistic equation to evaluate the concentration dependence of compound treatment. The increase in AJ mRNA is reported as AC50 (compound concentration having […] in AJ increase) while the decrease in CJ mRNA levels is reported as IC50 (compound concentration having 50% response in CJ decrease).
Additional studies were carried out for a larger panel of genes using the protocol provided above. The junction between flanking upstream and downstream exons was used to design canonical junction qPCR assays. At least one of the forward primer, reverse primer or the CY5-labeled 5′ nuclease probe (with 3′ quencher such as ZEN/Iowa Black FQ) was designed to overlap with the exon junction to capture the CJ mRNA transcript. […]
Background: In qPCR the cycle at which signal appears reflects the starting amount.

Series [1] deals with HiBiT-tagged Target C protein in K562 cells. Kind of series: HiBiT protein abundance assay, Target C. The format is cell-based, human. As to conditions: HiBiT-modified K562 cells, 24 hours, luminescence. As to the method:
(§1) Compounds described herein were used to screen for effects on quantitative protein abundance using a HiBit assay system (Promega). Quantitative protein abundance was determined by measuring the protein levels of HiBit-tagged protein targets expressed in cell culture via luminescence using the Nano-Glo HiBiT Lytic Detection System, which uses a split complementation assay format to reconstitute NanoBiT enzyme to generate a luminescent signal. A protein abundance assay was developed such that endogenous protein targets could be modified with the HiBiT peptide tag and their abundance could be assessed after compound treatment. Briefly, K562 cell lines containing a HiBiT-modification were treated with various compounds described herein (e.g., compounds of Formulas (I), (II), or (III)). After treatment for 24 hours, the protein abundance of a specific target was determined by measuring luminescence.
(§2) • Promega Nano-Glo HiBiT Lytic Detection System (cat #N3030) • Corning 384-well TC-treated microplates (cat #3570) • Synthego Engineered Cells Knock-In Clones
(§3) Cells were maintained in IMDM with 10% FBS. Before the assay, cells were diluted with […] growth media (IMDM+1% FBS media) and were seeded in a 384-well plate at a density of 10000 cells/well (for each cell line listed in Table 5). Each compound was prepared as a 10-point 3-fold serial dilution in DMSO with the top dose at a final concentration of 10 μM in the well. Unmodified K562 cells were added at the previously specified density with DMSO to serve as an assay baseline and positive control (PC) and DMSO only with the respective modified cell lines was added to the negative control (NC) columns. Final DMSO concentration was kept at or below 0.25%. Treated cell plates were placed in an incubator at 37° C. with 5% CO2 for 24 hours. After 24 hours, 25 μL of Complete HiBit Lytic reagent was added to each well at room temperature (e.g. one plate requiring 10 mL Lytic Buffer, 100 μL LgBiT Protein, 200 μL Lytic Substrate), shaken for 5 minutes at 600 RPM, then left to sit for 10 minutes for signal to stabilize before reading on a Spark Cyto plate reader (Tecan) with a 500 ms measurement time.
(§4) To determine compound effects on protein abundance of each target in Table 5, the percent response for each respective cell line was calculated at each compound concentration as follows:
(§5) For the normalized response at each concentration, a four-parameter logistical regression was fit to the data and the response was interpolated at the 50% value to determine a concentration for protein abundance at 50% (IC50) the untreated control.
(The HiBiT peptide binds its large partner to form an active luciferase.)

Series [2] relates to HiBiT-tagged MYB protein in K562 cells. The experiment in a line: HiBiT protein abundance assay, MYB. It counts as cell-based, human. The following applies: HiBiT-modified K562 cells, 24 hours, luminescence. As for the experimental part: as §1, §2, §3, §4, §5
For series [3], the system named is HiBiT-tagged HTT protein in K562 cells. The experiment in a line: HiBiT protein abundance assay, HTT. The following applies: HiBiT-modified K562 cells, 24 hours, luminescence. The format is cell-based, human. As to the method:
as §1, §2, §3, §4, §5

Series [4] can be described thus: Cell Titer Glo 2.0 cell viability assay. As to conditions: human, K562 cells. (In ATP-based viability assays light output follows the ATP content of the culture.)

Regarding `Cc1cn2cc(-c3cc4ncn([C@H]5CCNC[C@@H]5F)c(=O)c4s3)cc(F)c2n1` (relative stereo) [Compound 272, trans-6-{8-fluoro-2-methylimidazo[1,2-a]pyridin-6-yl}-3-[3-fluoropiperidin-4-yl]thieno[3,2-d]pyrimidin-4-one], the IC50 (with MYB CJ mRNA; in series [1]; in series [2]; in series [3]) was 1 to 10 µM each time. Moreover, the GI50 at 72 h in series [4] was > 10 µM.

For `Cc1cn2cc(-c3cc4ncn([C@H]5CCNC[C@H]5F)c(=O)c4s3)cc(F)c2n1` (relative stereo) [Compound 273, cis-6-{8-fluoro-2-methylimidazo[1,2-a]pyridin-6-yl}-3-[3-fluoropiperidin-4-yl]thieno[3,2-d]pyrimidin-4-one], the IC50 lay in the range of 0.1 to 1 µM in the series with MYB CJ mRNA, 1 to 10 µM in series [1], 1 to 10 µM in series [2] and 1 to 10 µM in series [3]. In addition, in series [4], the GI50 at 72 h lay within 1 to 10 µM.

In the case of `Cc1cn2cc(-c3cc4ncn([C@H]5CCN[C@H](C)C5)c(=O)c4s3)cc(F)c2n1` (relative stereo) [Compound 277, 6-{8-fluoro-2-methylimidazo[1,2-a]pyridin-6-yl}-3-[(trans)-2-methylpiperidin-4-yl]thieno[3,2-d]pyrimidin-4-one], the IC50 (in the series on MYB CJ mRNA; in series [1]; in series [2]; in series [3]) was 0.1 to 1 µM in each case. This molecule also returned a GI50 at 72 h in series [4] of 0.1 to 1 µM.

On to `Cc1cn2cc(-c3cc4ncn([C@H]5CCN[C@@H](C)C5)c(=O)c4s3)cc(F)c2n1` (relative stereo) [Compound 278, 6-{8-fluoro-2-methylimidazo[1,2-a]pyridin-6-yl}-3-[(cis)-2-methylpiperidin-4-yl]thieno[3,2-d]pyrimidin-4-one hydrochloride], for which the IC50 (in the series on MYB CJ mRNA; in series [1]; in series [2]; in series [3]) was 0.1 to 1 µM in each case. The molecule further yielded a GI50 at 72 h in series [4] of 0.1 to 1 µM.

As to `Cc1cc(-c2cc(=O)n3cc(N4CCN(C)CC4)sc3n2)cc2cn(C)nc12` [Compound 109, 7-(2,7-dimethyl-2H-indazol-5-yl)-2-(4-methylpiperazin-1-yl)-5H-thiazolo[3,2-a]pyrimidin-5-one], the IC50 (with MYB CJ mRNA; in series [1]; in series [2]; in series [3]) was > 10 µM in each case. Also, the concentration for 50% growth inhibition (GI50) at 72 h in series [4] is 1 to 10 µM.

Turning to `Cc1cc(-c2cc(=O)n3nc(N4CCN(C)CC4)sc3n2)cc2cn(C)nc12` [Compound 157, 7-(2,7-dimethyl-2H-indazol-5-yl)-2-(4-methylpiperazin-1-yl)-5H-[1,3,4]thiadiazolo[3,2-a]pyrimidin-5-one], the IC50 (in the series on MYB CJ mRNA; in series [1]; in series [2]; in series [3]) was > 10 µM each time. Besides, the GI50 at 72 h in series [4] is > 10 µM.

In the case of `Cc1cn2cc(-c3cc(=O)n4nc(N5CCN(C)CC5)sc4n3)cc(F)c2n1` [Compound 159, 7-(8-fluoro-2-methylimidazo[1,2-a]pyridin-6-yl)-2-(4-methylpiperazin-1-yl)-5H-[1,3,4]thiadiazolo[3,2-a]pyrimidin-5-one], the IC50 (with MYB CJ mRNA; in series [1]; in series [2]; in series [3]) was 1 to 10 µM each time. In addition, the concentration for 50% growth inhibition (GI50) at 72 h in series [4] lay in the range of 1 to 10 µM.

For the molecule `Cc1cc(-c2nn3c(=O)cc(N4CCNCC4)nc3s2)cc2cn(C)nc12` [Compound 206, 2-(2,7-dimethyl-2H-indazol-5-yl)-7-(piperazin-1-yl)-5H-[1,3,4]thiadiazolo[3,2-a]pyrimidin-5-one], the IC50 (in the series on MYB CJ mRNA; in series [1]; in series [2]; in series [3]) was 1 to 10 µM each time. This molecule had a GI50 at 72 h in series [4] of 1 to 10 µM.

`Cc1cn2cc(-c3cc(=O)n4cc(N5CCNC6(CC6)C5)sc4n3)cc(F)c2n1` [Compound 207, 7-(8-fluoro-2-methylimidazo[1,2-a]pyridin-6-yl)-2-(4,7-diazaspiro[2.5]octan-7-yl)-5H-thiazolo[3,2-a]pyrimidin-5-one]: the IC50 in the series with MYB CJ mRNA was 1 to 10 µM; in series [1], > 10 µM; in series [2], > 10 µM; in series [3], > 10 µM. The GI50 at 72 h in series [4] is > 10 µM.

Turning to `Cc1cn2cc(-c3cn4c(=O)cc(N5CCNC6(CC6)C5)nc4s3)cc(F)c2n1` [Compound 208, 2-(8-fluoro-2-methylimidazo[1,2-a]pyridin-6-yl)-7-(4,7-diazaspiro[2.5]octan-7-yl)-5H-thiazolo[3,2-a]pyrimidin-5-one], the IC50 (with MYB CJ mRNA; in series [1]; in series [2]; in series [3]) was 1 to 10 µM each time. Besides, the GI50 at 72 h in series [4] fell in the range of 1 to 10 µM.

Turning to `Cc1cn2cc(-c3cc(=O)n4nc(N5CCNC6(CC6)C5)sc4n3)cc(F)c2n1` [Compound 209, 7-(8-fluoro-2-methylimidazo[1,2-a]pyridin-6-yl)-2-(4,7-diazaspiro[2.5]octan-7-yl)-5H-[1,3,4]thiadiazolo[3,2-a]pyrimidin-5-one], the IC50 (with MYB CJ mRNA; in series [1]; in series [2]; in series [3]) was 1 to 10 µM each time. This molecule registered a GI50 at 72 h in series [4] of 1 to 10 µM.
